Consider one compound from patent US10500198B2, “Bis-benzylidine piperidone proteasome inhibitor with anticancer activity” (The Johns Hopkins University, priority 2013, dated 2019).

Structures are written as SMILES. A value given as a limit tells only on which side of the number the result lay.

Series [1] relates to HeLa. The series is described as follows: Cell viability after 48-hr treatment (Table 1). It counts as cell-based, human. The note with it: 48-hr treatment; XTT assay; read-out: IC50, HeLa. The essentials: (§1)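 Viable cells were then quantified by a 1-2 hr MTS reaction with absorbance measured at 490 nm.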
A general note: Tetrazolium dyes change colour on reduction, which living cells bring about.

Series [2] relates to OVCAR3. Description: Cell viability after 48-hr treatment (Table 1). It counts as cell-based, human. As to conditions: XTT assay. The essentials: as §1
The subject of series [3] is HT3. The series is described as follows: Cell viability after 48-hr treatment (Table 1). It counts as cell-based. As to conditions: 48-hr treatment; XTT assay; read-out: IC50, HT3. The essentials: as §1
Series [4] has as its system HaCaT. Description: Cell viability after 48-hr treatment (Table 1). It counts as cell-based. As to conditions: 48-hr treatment; XTT assay; read-out: IC50, HaCaT. The essentials: as §1
In series [5] the test system is RPMI8226. Description: Cell viability after 48-hr treatment (Table 1). The note with it: XTT assay. The series is classed as cell-based. The essentials: as §1
For series [6], the system named is SiHa. The series is described as follows: Cell viability after 48-hr treatment (Table 1). The series is classed as cell-based. The note with it: 48-hr treatment; XTT assay; read-out: IC50, SiHa. The method, boiled down:
(§2)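 Plating density 5,000 cells/well for ES-2 and 10,000-20,000 cells/well for SiHa, FaDu and HOK-16B.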

Series [7] deals with C33A. The series is described as follows: Cell viability after 48-hr treatment (Table 1). It counts as cell-based. As to conditions: 48-hr treatment; XTT assay; read-out: IC50, C33A. The method, boiled down:
as §1

Series [8] has as its system FaDu. Description: Cell viability after 48-hr treatment (Table 1). The series is classed as cell-based. The note with it: 48-hr treatment; XTT assay; read-out: IC50, FaDu. The method, boiled down:
as §2

In series [9] the test system is MM.1S. The series is described as follows: Cell viability after 48-hr treatment (Table 1). The series is classed as cell-based. As to conditions: XTT assay. Here is the method: Cell viability was assayed using CellTiter 960 AQueous One Solution Reagent (Promega, Madison, Wis.). Cells seeded at the concentration of 1,000 cells/well for HeLa, 5,000 cells/well for ES2 and HCT116 and 10,000-20,000 cells/well for other cell lines in 100 μL medium in 96-well plate were treated with RA series compounds at specified concentrations. […]

The subject of series [10] is SKOV3. Description: Cell viability after 48-hr treatment (Table 1). It counts as cell-based. As to conditions: 48-hr treatment; XTT assay; read-out: IC50, SKOV3. The method, boiled down: as §1
The subject of series [11] is HeLa cells. Description: Drug combination index assay. The series is classed as cell-based, human. As to conditions: 48 hr, read-out: IC50 (single agent, Compusyn). Here is the method:
The combination indices and a normalized isobologram were calculated using Compusyn software (www.combosyn.com).

In series [12] the target is T1, RPN13 Pru domain (Homo sapiens, UniProt Q16186).
T1 construct: RPN13 (1-150), which includes its Pru domain; made in house
T1 sequence (Q16186 1-150): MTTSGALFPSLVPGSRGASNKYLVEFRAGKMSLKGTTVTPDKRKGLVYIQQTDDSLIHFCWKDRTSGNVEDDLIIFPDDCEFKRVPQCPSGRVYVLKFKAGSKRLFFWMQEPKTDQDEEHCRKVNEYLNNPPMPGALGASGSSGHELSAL
The series is described as follows: NMR and LC-MS of RA190-exposed RPN13. The series is classed as binding. The note with it: site-directed mutagenesis, NMR. Here is the method: By contrast, RPN13 Pru C^60,80,121.
NMR spectra were acquired at 25° C. or 10° C. on Bruker NMR spectrometers operating at 850 or 900 MHz and equipped with cryogenically cooled probes. Processing was performed in NMRPipe^13 and the resulting spectra visualized with XEASY.^3 Protein concentrations were calculated by extinction coefficients based on amino acid composition and absorbance at 280 nm for protein dissolved in 6 M guanidine-HCl.
RPN13 Pru domain and RA190-exposed RPN13, RPN13 Pru domain, RPN13 Pru C60,80,121A, and RPN13 Pru C88A at protein concentrations of 1 μg/μL were treated with formic acid and injected onto a Nano2D-LC HPLC system (Eksigent, Dublin, Calif.) equipped with an Agilent Zorbax 300SB C8 column (3 mm ID, 10 cm length, 3.5 μm particle size). The samples were subjected to 10 min of incubation in 98% H2O:2% CH3CN, a 20 min linear gradient at 10 μL/min flow rate to 75% H2O:25% CH3CN followed by a 12 min linear gradient to 5% H2O:95% CH3CN and then a 2 min hold. Analysis was conducted by positive ionization electrospray with an LTQ-Orbitrap Velos instrument (Thermo Scientific, Waltham, Mass.) and adducts were quantified utilizing the Orbitrap detector with a resolution of 100,000 at a scan range of 400-2000 m/z.

The subject of series [13] is HeLa cells. Description: Cell surface HSP90 staining. The series is classed as cell-based, human. The note with it: 24 hr. From the text:
Cell surface HSP90 was detected by staining with purified anti-HSP90 mAb (Stressgen), followed by PE-conjugated anti-mouse IgG1. The data were acquired with a FACSCalibur and analyzed using CellQuest software.

Series [14] can be described thus: Tissue levels 48 hr after single i.p. dose. The note with it: 48 hr after single i.p. dose of 10 mg/kg. It counts as in vivo, mouse. Here is the method: Tissue was harvested at 48 hr after single-dose intraperitoneal administration in non-tumor bearing mice. Blood was collected by cardiac puncture under anesthesia into heparinized syringes and centrifuged to obtain plasma. Tissues were rapidly dissected and snap frozen in liquid nitrogen. Samples were stored frozen at −70° C. until analysis. […] Tissue homogenates were prepared at a concentration of 200 mg/mL in PBS and further diluted 1:10 in mouse plasma before extraction using acetonitrile containing temazepam (100 ng/mL). Separation was achieved on Waters X-Terra™ C18 (50 mm×2.1 mm i.d., 3 μm) at room temperature using isocratic elution with acetonitrile/water mobile phase (70:30, v/v) containing 0.1% formic acid at a flow rate of 0.2 mL/min. […] Samples were quantitated over the assay range of 10 to 1000 ng/mL or 0.6 to 60 μg/g. […] Cmax and Tmax were the observed values from the mean data. The AUClast was calculated using the log-linear trapezoidal rule to the end of sample collection (AUClast) and extrapolated to infinity (AUC0-∞) by dividing the last quantifiable concentration by the terminal disposition rate constant (λz), which was determined from the slope of the terminal phase of the concentration-time profile. The half-life (T1/2) was determined by dividing 0.693 by λz. Relative bioavailability was calculated as follows: […]

The subject of series [15] is ES2-luciferase tumor. Description: ES2-luciferase tumor in nude mice. It counts as in vivo, mouse. The note with it: 10 mg/kg i.p. every day, 14 days. From the text:
Prior to and at the end of the treatment, mice were imaged for bioluminescence. […] The mice were imaged before and at the end of the treatment for bioluminescence levels. We have previously described the susceptibility of human ovarian cancer lines to proteasome inhibition. […] Prior to and 7 and 14 days after initiation of treatment, the mice were imaged for luciferase activity.
For TC-1 tumors, C57BL/6 mice (8/group) were challenged subcutaneously with 5×10^4 TC-1 cells/mice. Tumors grew for approximately 7 days until they were palpable, whereupon the mice were weighed and treatment was initiated. Tumor size was measured with a digital caliper and calculated based on the formula: [largest diameter×(perpendicular diameter)2]π/6. Nude mice (8 per group) were inoculated with 1×10^6 EΩ-Luciferase cells i.p. in 100 μL PBS. At day 3 mice were imaged for basal level luminescence expression. […] NOG mice (5 per group) were inoculated with 1×10^6 NCI-H929-GFP-Luc cells i.v., and after 4 weeks, mice were imaged for their luciferase activity and divided into two groups.

By IC50 is commonly meant the midpoint of a concentration-inhibition curve. For the compound `Cl.N[C@@H](Cc1ccccc1)C(=O)N1CC(=Cc2ccc(Cl)c(Cl)c2)C(=O)C(=Cc2ccc(Cl)c(Cl)c2)C1` [RA190, 3,5-bis(3,4-dichlorobenzylidene)-1-(S-2-amino-3-phenyl)-piperidin-4-one-HCl salt], the IC50 in series [1] was 0.15 µM; in series [2], 2 µM; in series [3], > 5 µM; in series [4], > 2.5 µM; in series [5], 0.1 µM; in series [6] it was 0.75 µM. Moreover, the IC50 in series [7] was > 5 µM; in [8] it was > 2.5 µM; in series [9] it was 0.035 µM; in [10], > 2.5 µM; in series [11] it was 0.184 µM. The “site of RA190 ligation” value in series [12] is listed as “ligates to RPN13 C88”. Also, in series [13], the “cells with cell-surface HSP90” value was 54.2%. In addition, in series [14], the “RA190 detected in brain” value was “not brain”. The “RA190 detected in kidney” value in series [14] amounted to 0.61 µg/g. The “RA190 detected in liver” value in series [14] was 0.57 µg/g. Further, the “RA190 detected in lung” value in series [14] turned out to be 0.66 µg/g. The “RA190 detected in spleen” value in series [14] came to 0.59 µg/g. Moreover, in series [15], the “ES2 tumor growth (bioluminescence)” value is “significantly inhibited”.
